We go through 32 compounds from patent US20140309210A1, “INDAZOLE COMPOUNDS, COMPOSITIONS AND METHODS OF USE THEREOF” (Genentech, Inc., priority 2011, published 2014).

The experiment addresses T1, purified ITK (Invitrogen PV3875) (Homo sapiens, UniProt Q08881).
T1 construct: purchased Invitrogen PV3875
T1 sequence (Q08881 1-620): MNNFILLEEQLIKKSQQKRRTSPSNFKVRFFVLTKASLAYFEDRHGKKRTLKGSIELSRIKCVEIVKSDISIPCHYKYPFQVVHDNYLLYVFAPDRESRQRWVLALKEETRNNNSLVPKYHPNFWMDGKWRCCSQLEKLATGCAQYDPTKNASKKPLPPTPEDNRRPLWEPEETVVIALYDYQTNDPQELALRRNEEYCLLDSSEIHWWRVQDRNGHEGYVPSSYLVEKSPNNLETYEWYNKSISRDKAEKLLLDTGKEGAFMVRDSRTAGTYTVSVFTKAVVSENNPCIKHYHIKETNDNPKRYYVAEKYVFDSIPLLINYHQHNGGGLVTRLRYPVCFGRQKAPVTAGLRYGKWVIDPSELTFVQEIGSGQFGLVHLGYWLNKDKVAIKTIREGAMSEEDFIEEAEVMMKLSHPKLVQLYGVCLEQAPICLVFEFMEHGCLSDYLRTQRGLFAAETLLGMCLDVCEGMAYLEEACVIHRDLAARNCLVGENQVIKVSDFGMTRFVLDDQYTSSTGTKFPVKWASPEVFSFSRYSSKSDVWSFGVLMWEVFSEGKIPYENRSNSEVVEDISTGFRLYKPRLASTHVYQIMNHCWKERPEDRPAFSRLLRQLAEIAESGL
Kind of experiment: ITK peptide phosphorylation assay (Caliper LabChip or LCMS). It counts as biochemical. In a few lines:
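Purified human ITK peptide phosphorylation, quenched with EDTA (50 mM final) for Caliper LabChip separation or TCA (5% v/v final) for UPLC-MS/MS MRM quantification. Ki derived via Morrison tight-binding equation, corrected for competitive inhibition using ATP concentration relative to Km,app.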

The mark [1] stands for this setting: Table 2, Examples 1-140, class symbols.
The mark [2] stands for this setting: Table 3, specific values for certain examples.

For orientation: Ki means the dissociation constant of the complex between target and ligand, obtained from inhibition or displacement. A lower Ki goes with tighter binding. Under setting [1], `O=C(Nc1cnn(Cc2c(Cl)cccc2Cl)c1)c1n[nH]c2ccccc12` [Example 61, N-(1-(2,6-dichlorobenzyl)-1H-pyrazol-4-yl)-1H-indazole-3-carboxamide] returned a Ki greater than 100 nM.
Turning to `N#Cc1cccc(Cn2cc(NC(=O)c3n[nH]c4cc(-c5cnco5)ccc34)cn2)c1` [Example 197, N-[1-[(3-cyanophenyl)meth-yl]pyrazol-4-yl]-6-oxazol-5-yl-1H-indazole-3-carboxamide], under “Table 1, Examples 141-279”, affinity was put at a Ki of 2.04 nM.
`O=C(Nc1cnn(Cc2cccc(-c3nn[nH]n3)c2)c1)c1n[nH]c2cc(-c3cn[nH]c3)ccc12` [Example 48, 6-(1H-Pyrazol-4-yl)-1H-indazole-3-carboxylic acid {1-[3-(2H-tetrazol-5-yl)-benzyl]-1H-pyrazol-4-yl}-amide] returned a Ki under setting [1] of 0.01 to 1 nM.
On the same count and under the same terms, under `O=C(Nc1cnn(Cc2ccncc2)c1)c1n[nH]c2ccccc12` [Example 52, N-(1-(pyridin-4-ylmethyl)-1H-pyrazol-4-yl)-1H-indazole-3-carboxamide] stands 1 to 100 nM.
Consider `O=C(Nc1cnn(Cc2ccc(OC(F)(F)F)cc2)c1)c1n[nH]c2ccccc12` [Example 72, N-(1-(4-(trifluoromethoxy)benzyl)-1H-pyrazol-4-yl)-1H-indazole-3-carboxamide], for which the Ki under setting [1] is greater than 100 nM.
`CN1CCC(c2ccc3c(C(=O)Nc4cnn(Cc5cccc(C#N)c5)c4)n[nH]c3c2)C1` (centres unmarked) [Example 188, N-[1-[(3-cyanophenyl)meth-yl]pyrazol-4-yl]-6-(1-methylpyrrolidin-3-yl)-1H-indazole-3-carboxamide] came in with a Ki (Table 1, Examples 141-279) of 1600 nM.
The same measure, in the same setting: under `O=C(Nc1cnn(CC2CCCCC2)c1)c1n[nH]c2cc(-c3cn[nH]c3)ccc12` [Example 243, N-[1-(cyclohexylmeth-yl)pyrazol-4-yl]-6-(1H-pyrazol-4-yl)-1H-indazole-3-carboxamide] stands 2.43 nM.
On the same count and under the same terms, under `CC(C)CN1CCOC(Cn2cc(NC(=O)c3n[nH]c4cc(-c5cn[nH]c5)ccc34)cn2)C1` (centres unmarked) [Example 252, N-[1-[(4-isobutylmorpholin-2-yl)methyl]pyrazol-4-yl]-6-(1H-pyrazol-4-yl)-1H-indazole-3-carboxamide] stands 3.58 nM.
Turning to `CC(C)(O)Cn1cc(NC(=O)c2n[nH]c3cc(-c4cn[nH]c4)ccc23)cn1` [Example 170, N-[1-(2-hydroxy-2-methyl-propyl)pyrazol-4-yl]-6-(1H-pyrazol-4-yl)-1H indazole-3-carboxamide], under “Table 1, Examples 141-279”, the inhibition constant Ki is 8.74 nM. This Ki lies about 2.4-fold higher than the previous one.
Consider `O=C(O)c1cccc(Cn2cc(NC(=O)c3n[nH]c4cc(-c5cn[nH]c5)ccc34)cn2)c1` [Example 46, 3-(4-{[6-(1H-Pyrazol-4-yl)-1H-indazole-3-carbonyl]-amino}-pyrazol-1-ylmethyl)-benzoic acid], for which the Ki under setting [1] is 0.01 to 1 nM.
Turning to `N#Cc1cccc(Cn2cc(NC(=O)c3n[nH]c4cc(NC5CCNCC5)ccc34)cn2)c1` [Example 173, N-[1-[(3-cyanophenyl)meth-yl]pyrazol-4-yl]-6-(4-piperidylamino)-1H-indazole-3-carboxamide], the Ki (Table 1, Examples 141-279) was 1200 nM. This counts as single-digit micromolar.
The same measure, in the same setting: under `CCC(c1ccccc1)n1cc(NC(=O)c2n[nH]c3cc(-c4cncc(OC)c4)ccc23)cn1` (centres unmarked) [Example 211, 6-(5-methoxy-3-pyridyl)-N-[1-(1-phenylpropyl)py-razol-4-yl]-1H-indazole-3-carboxamide] stands 53.8 nM.
Turning to `CC[C@@H](c1ccccc1)n1cc(NC(=O)c2n[nH]c3cc(-c4cncnc4)ccc23)cn1` [Example 138, (S)—N-(1-(1-phenylpropyl)-1H-pyrazol-4-yl)-6-(pyrimidin-5-yl)-1H-indazole-3-carboxamide], the inhibitory constant (Ki) under setting [1] was in the range of 1 to 100 nM and the Ki under setting [2] worked out at 5.6 nM.
For `O=C(Nc1cnn(CC2CCCO2)c1)c1n[nH]c2cc(-c3cn[nH]c3)ccc12` (centres unmarked) [Example 239, 6-(1H-pyrazol-4-yl)-N-[1-(tetrahydrofuran-2-ylmethyl)pyrazol-4-yl]-1H-indazole-3-carboxamide], the affinity (Table 1, Examples 141-279), expressed as Ki, was 6.58 nM.
Where the note is “Table 1, Examples 141-279”, `O=C(Nc1cnn(CC2CC2)c1)c1n[nH]c2cc(-c3cn[nH]c3)ccc12` [Example 240, N-[1-(cyclopropylmeth-yl)pyrazol-4-yl]-6-(1H-pyrazol-4-yl)-1H-indazole-3-carboxamide] came in with a Ki of 5.33 nM.
Under setting [1], `O=C(Nc1cnn(Cc2cscn2)c1)c1n[nH]c2cc(-c3cccnc3)ccc12` [Example 34, 6-(3-pyridyl)-N-[1-(thiazol-4-ylmethyl)pyrazol-4-yl]-1H-indazole-3-carboxamide] returned an inhibitory constant (Ki) of 1 to 100 nM.
`N#CCCn1cc(NC(=O)c2n[nH]c3cc(-c4cn[nH]c4)ccc23)cn1` [Example 261, N-[1-(2-cyanoethyl)py-razol-4-yl]-6-(1H-pyrazol-4-yl)-1H-indazole-3-carboxamide] showed an inhibition constant Ki (Table 1, Examples 141-279) of 4.81 nM. This lies in the single-digit nanomolar range.
`N#Cc1cncc(-c2ccc3c(C(=O)Nc4cnn(Cc5ccccc5)c4)n[nH]c3c2)c1` [Example 84, N-(1-benzyl-1H-pyrazol-4-yl)-6-(5-cyanopyridin-3-yl)-1H-indazole-3-carboxamide] displayed an inhibition constant Ki under setting [1] of 1 to 100 nM.
`O=C(Nc1cnn(CCN2CCCC(O)C2)c1)c1n[nH]c2ccccc12` (centres unmarked) [Example 75, N-(1-(2-(3-Hydroxypiperidin-1-yl)ethyl)-1H-pyrazol-4-yl)-1H-indazole-3-carboxamide]: the Ki is greater than 100 nM under setting [1] and 428 nM under setting [2].
`N#Cc1cccc(Cn2cc(NC(=O)c3n[nH]c4cc(-n5ccnc5)ccc34)cn2)c1` [Example 142, N-[1-[(3-cyanophenyl)meth-yl]pyrazol-4-yl]-6-imidazol-1-yl-1H-indazole-3-carboxamide] came in with a Ki (Table 1, Examples 141-279) of 32.4 nM.
Consider `N#Cc1cccc(Cn2cc(NC(=O)c3n[nH]c4ccc(NC5CCOCC5)cc34)cn2)c1` [Example 194, N-[1-[(3-cyanophenyl)meth-yl]pyrazol-4-yl]-5-(tetrahydropyran-4-ylamino)-1H-indazole-3-carboxamide], for which the affinity (Table 1, Examples 141-279), expressed as Ki, was 106 nM.
Still for that read-out and setting: the same measure for `CN(CCO)c1nc(Cn2cc(NC(=O)c3n[nH]c4cc(-c5cn[nH]c5)ccc34)cn2)cs1` [Example 141, N-[1-[[2-[2-hydroxyethyl(meth-yl)amino]thiazol-4-yl]methyl]pyrazol-4-yl]-6-(1H-pyrazol-4-yl)-1H-indazole-3-carboxamide]: 2.8 nM.
In the case of `N#Cc1cccc(Cn2cc(NC(=O)c3n[nH]c4ccc(-c5cn[nH]c5)cc34)cn2)c1` [Example 81, N-(1-(3-Cyanobenzyl)-1H-pyrazol-4-yl)-5-(1H-pyrazol-4-yl)-1H-indazole-3-carboxamide], under setting [1], the inhibitory constant (Ki) lay in the range of 1 to 100 nM.
For `N#Cc1cccc(Cn2cc(NC(=O)c3n[nH]c4cc(C5CNC5)ccc34)cn2)c1` [Example 182, 6-(azetidin-3-yl)-N-[1-[(3-cyanophenyl)meth-yl]pyrazol-4-yl]-1H-indazole-3-carboxamide], affinity (Table 1, Examples 141-279) was put at a Ki of 240 nM.
The same measure, in the same setting: under `CN1CC(c2ccc3c(C(=O)Nc4cnn(Cc5cccc(C#N)c5)c4)n[nH]c3c2)C1` [Example 191, N-[1-[(3-cyanophenyl)meth-yl]pyrazol-4-yl]-6-(1-methylazetidin-3-yl)-1H-indazole-3-carboxamide] stands 2400 nM; under `O=C(Nc1cnn(Cc2cncc(Br)c2)c1)c1n[nH]c2cc(-c3cn[nH]c3)ccc12` [Example 143, N-[1-[(5-bromo-3-pyridyl)methyl]py-razol-4-yl]-6-(1H-pyrazol-4-yl)-1H-indazole-3-carboxamide], 0.614 nM; under `O=C(Nc1cnn(Cc2cccnc2)c1)c1n[nH]c2cc(-c3cn[nH]c3)ccc12` [Example 216, 6-(1H-pyrazol-4-yl)-N-[1-(3-pyridylmethyl)py-razol-4-yl]-1H-indazole-3-carboxamide], 1.12 nM.
Compound `CN1CCN(c2cccc(Cn3cc(NC(=O)c4n[nH]c5cc(-c6cn[nH]c6)ccc45)cn3)c2)CC1` [Example 39, N-[1-[[3-(4-methylpiperazin-1-yl)phenyl]methyl]pyrazol-4-yl]-6-(1H-pyrazol-4-yl)-1H-indazole-3-carboxamide] yielded a Ki under setting [1] of 0.01 to 1 nM.
On to `CNC(=O)c1ccc(Cn2cc(NC(=O)c3n[nH]c4cc(-c5cn[nH]c5)ccc34)cn2)o1` [Example 15, 6-(1H-Pyrazol-4-yl)-1H-indazole-3-carboxylic acid [1-(5-methylcarbamoyl-furan-2-ylmethyl)-1H-pyrazol-4-yl]-amid], for which the Ki under setting [1] was in the range of 1 to 100 nM.
Take `CC[C@@H](c1ccccc1)n1cc(NC(=O)c2n[nH]c3cc(-c4cc[nH]n4)ccc23)cn1` [Example 137, (S)—N-(1-(1-phenylpropyl)-1H-pyrazol-4-yl)-6-(1H-pyrazol-3-yl)-1H-indazole-3-carboxamide]: the Ki by setting is: under setting [1], 1 to 100 nM; under setting [2], 9.9 nM.
Compound `CN(CCC(c1ccccc1)n1cc(NC(=O)c2n[nH]c3ccccc23)cn1)CC(F)(F)F` (centres unmarked) [Example 269, N-[1-[3-[methyl(2,2,2-trifluoroethyl)a-mino]-1-phenyl-propyl]pyrazol-4-yl]-1H-indazole-3-carboxamide] came in with an inhibition constant Ki (Table 1, Examples 141-279) of 105 nM.
Still for that read-out and setting: under `O=C(Nc1cnn(Cc2ccccc2)c1)c1n[nH]c2cc(-c3cn[nH]c3)cnc12` [Example 245, N-(1-benzylpyrazol-4-yl)-6-(1H-pyrazol-4-yl)-1H-pyrazolo[4,3-b]pyridine-3-carboxamide] stands 18.9 nM.
